These results are taken from patent US20100310591A1 (priority 2009, published 2010).

“And” between values parts separate entries of the source, which are not always exact repeats. Equal values may be shown once.

Assay [1] deals with CD4+ T cells (CD8+ depleted donor PBMC). The format is cell-based, human.
Assay [2] concerns CD4+ T cells (CD8+ depleted PBMC of rHA-responsive donors). It counts as cell-based, human.
A further assay deals with MHC class II molecules. The following applies: cited from earlier work.
Assay [3] concerns TPc9.1 T hybridoma with CH27 antigen presenting cells. Put plainly: T hybridoma response assay (APC + T hybridoma, HT-2 [3H]TdR uptake readout). The format is cell-based, murine. How it is done:
Biological Activities of Hybrid Peptides [00103) The biological activities of the series of peptides listed in Table I were determined with the T hybridoma response assay. A T cell hybridoma which is specific to the hornworm moth cytochrome C epitope IAYLKQATAK (SEQ ID NO: 8) was stimulated with that antigenic peptide or with members of the series of hybrids of the antigenic peptide and the core Ii-Key sequence listed in Table I. The hybrids were joined with spacers of various lengths. The spacers contained either amino acids in the natural sequence of the Ii protein, or methylene (—CH2—) groups of 5-amino-n-valeric acid (ava; 5-aminopentanoic acid). Cultures of an antigen presenting cell and T cell hybridoma were incubated with serial 1:4 dilutions of the antigenic peptide, from 3 μM. Response was determined by measuring tritiated thymidine uptake by an HT-2 culture to which supernatants of the antigenic stimulation culture (24 hr stimulation period) had been transferred (see, Table 2). The endpoint for half maximal response to Hybrid 1, the antigenic peptide, was about 20 nM. The endpoint for half maximal stimulation with Hybrids 5 and 2 was about 50 pM.
For this assay the following components were added at the same time of the primary culture: (a) The hybrid peptide containing the antigenic epitope (Table I); (b) mitomycin C-treated, MHC class II-positive antigen presenting cells (APC) with the MHC class II allele required for binding of the specific antigenic peptide and its presentation to the antigenic peptide-specific T cell hybridoma; (c) MHC class II allele-restricted T cell hybridoma specific for the antigenic peptide and the MHC class II allele restricting its presentation. At the end of the incubation of this primary culture, an aliquot of its supernatant was transferred into a second culture well for incubation with an interleukin-dependent lymphoblastoid cell line. The degree of stimulation of that second indicator cell by the interleukins which had been released from the activated T cell hybridoma in the primary culture was measured by quantitating tritiated thymidine deoxyribose {[^3H]TdR} uptake into the DNA of the HT-2 indicator cells of that second culture.
The hybrids between Ii-Key core sequence LRMK (SEQ ID NO: 3) and PGCC95-104, pigeon cytochrome C 95-104, IAYLKQATAK (SEQ ID NO: 8) are presented by E^k. The peptides were dissolved in phosphate-buffered saline (PBS; 0.01 M sodium phosphate buffer, pH 7.2, 0.1 M NaCl). The solutions were sterilized by filtration. The TPc9.1 T hybridoma is specific for pigeon cytochrome C 81-104 peptide presented on the murine class II MHC allele E^k. The CH27 B cell lymphoma line which expresses H-2^k alleles was used as the antigen presenting cell.
Antigenic peptide-specific T cell activation was measured by the following procedure. Mitomycin C-treated CH27 cells (A^kE^k) APC were generated by incubating 5.×10^6 cells/mL for 20 min at 37° C. with 0.025 mg/mL of mitomycin C (Sigma) in Dulbecco's Modified Eagle's Medium (DMEM)/10 mM N-2 (hydroxyethylpiperazine-N′[2-ethanesulfonic acid] (HEPES), followed by two washes with four volumes of DMEM-5% fetal calf serum (FCS), 10 mM HEPES. T cell hybridomas were irradiated 2200 rads before each assay.
For the primary culture assay, 5×10^4 mitomycin C-treated APC, 5×10^4 T hybridoma cells and serial 1:4 dilutions from 3 uM of the peptides containing antigenic epitopes were cultured at pH 7.2-7.4, in complete DMEM-5% FCS, 10 mM HEPES, 1× nonessential amino acids (Sigma), 1 mM sodium pyruvate, 2 mM L-glutamine. 100 U/mL penicillin G, 100 μg/mL streptomycin sulfate, 5×10^−5 M 2-mercaptoethanol (2-ME). Wells containing only T hybridoma cells (T)+APC were included to monitor for background T cell activation; and wells containing T+APC+antigenic peptide were included to monitor for non-specific T hybridoma activation by each AE101 series peptide. […]

Consider “Ac-LRMK-ava-HLLSRINHFEKIQ—NH2 [Ii-Key peptide No. 121]”, for which, in assay [1], the “frequency of recognition (responding vaccine recipients / tested)” value is recorded as 9/35 and the “in vitro IFN-γ response (in words)” value was “strongest in vitro IFN-γ responses”.
The corresponding values for “Ac-LRMK-ava-KKNSAYPTIKRSY—NH2 [Ii-Key peptide No. 170]” are 9/35 and “strongest in vitro IFN-γ responses”.
The corresponding values for “Ac-LRMK-ava-TIKRSYNNTNQED—NH2 [Ii-Key peptide No. 177]” are 10/35 and “strongest in vitro IFN-γ responses”.
As for FFRNVVWLIKKNSTYPT [BEI 28], the “in vitro CD4 response, fold above background” value in assay [2] is reported as 3.7 fold above background.
With IGECPKYVKSNRLVLAT [BEI 54], in assay [2], the “in vitro CD4 response, fold above background” value is 3.9 fold above background and 3.8 fold above background.
With KMEDGFLDVWTYNAELL [BEI 73], the “in vitro CD4 response, fold above background” value in assay [2] turned out to be 15 fold above background.
In the case of KRGLFGAIAGFIEGGWQ [BEI 59], in assay [2], the “recognition frequency among donors” value is on record as 21%.
For the substance LRMK (SEQ ID NO: 3), the “share of maximal activity of any member of the series of Ii-key peptides” value in the assay on MHC class II molecules is “at least 50%”.
Regarding LRMKLPKSAKPIAYLKQATAK [Hybrid 5], the “immunological response to the antigenic epitope (T cell proliferative response)” value in assay [3] (Conc. 0.01 nM) is recorded as 14.3 thousands of counts per minute; in assay [3] (Conc. 0.05 nM), 21.3 thousands of counts per minute; in assay [3] (Conc. 0.18 nM), 36.7 thousands of counts per minute; in assay [3] (Conc. 0.73 nM), 30.1 thousands of counts per minute; in assay [3] (Conc. 3 nM), 31.4 thousands of counts per minute; in assay [3] (Conc. 12 nM), 44.6 thousands of counts per minute. Also, the “immunological response to the antigenic epitope (T cell proliferative response)” value in assay [3] (Conc. 47 nM) is 26.2 thousands of counts per minute; in assay [3] (Conc. 188 nM), 29.1 thousands of counts per minute; in assay [3] (Conc. 750 nM), 27.5 thousands of counts per minute; in assay [3] (Conc. 3000 nM), 27.3 thousands of counts per minute. Moreover, the EC50 in assay [3] (serial 1:4 dilutions from 3 μM, 24 hr stimulation, read-out: endpoint for half maximal stimulation) is about 0.05 nM.
LRNSPQRERRRKKRGLF [BEI 57]: in assay [2], the “in vitro CD4 response, fold above background” value is 4.1 fold above background.
Still for that read-out and setting: to LVPRIATRSKVNGQSGR [BEI 39] belongs 3.8 fold above background; to MEKNVTVTHAQDUKEKT [BEI 7], 12 fold above background.
Same read-out and setting: to NHFEKIQIIPKSSWSSH [BEI 22] belongs 4.6 fold above background; to PLILRDCSVAGWLLGNP [BEI 12], 3.3 fold above background.
Same read-out and setting: to SNVKNLYDKVRLQLRDN [BEI 78] belongs 3.3 fold above background; to STLNQRLVPRIATRSKV [BEI 38], 13 fold above background; to VTHAQDILEKTHNGKL [BEI 8], 3.4 fold above background.
Take WLIKKNSTYPTILRSYN [BEI 29]: the “in vitro CD4 response, fold above background” value in assay [2] amounted to 3.6 fold above background.
Still for that read-out and setting: to YQGKSSFFRNVVWLIKK [BEI 27] belongs 12 fold above background.
Consider YQNPTTYISVGTSTLNQ [BEI 36], for which the “recognition frequency among donors” value in assay [2] was 21%.
